Here are results for four compounds from patent US20080207563A1, “METHOD FOR INHIBITING PROLIFERATION OF TUMOR CELLS” (priority 2007, published 2008).

The subject of assay [1] is HT-29 colorectal cancer cells. Nature of the assay: Cell viability (MTT) assay, single agents and combinations with erlotinib. In kind it is cell-based, human. Conditions: for combination effect of the two drugs: erlotinib in the presence of low doses of MEK inhibitor, HT-29, simultaneous or sequential. On the procedure: (§1) Cell respiration, as an indicator of cell viability, is measured by the reduction of 3-(4,5-Dimethylthiazol-2-yl)-2,5-diphenyltetrazolium bromide (MTT) to formazan. HT-29 cells are maintained in McCoy's 5a medium (modified) containing 10% fetal bovine serum and are seeded to 96-well microtiter dishes at 2,000 cells/well in a 100 μl volume while MDA-MB-468 cells are maintained in Dulbecco's modified Eagle's medium containing 10% fetal bovine serum and are seeded to 96-well microtiter dishes at 4,000 cells/well in a volume 100 μl. On the following day, the cells are exposed to compounds in an additional 100 μl at the indicated concentrations and cultured for 5 days. After the addition of 50 μl/well of a 5 mg/ml MTT stock in Dulbecco's phosphate-buffered saline (PBS), the cells are incubated for an additional 2.5 hours at 37° C. Thereafter, the medium is removed and 50 μl of 100% ethanol is added to each well to dissolve the formazan crystals. The conversion of MTT into formazan by viable cells is assessed by a microplate reader at 570 nm. The results are presented as a percentage of the viability of untreated cells (control), which are regarded as 100% viable.
(§2) Dose-response interactions (antagonism, additive, and synergism) of two drugs are expressed as the Fa-Cl (the fraction affected by dose-the combination index) plot using the method of Chou and Talalay described in Advances in Enzyme Regulation, Volume 22, pp. 27-55 (1984) processed by the computer software Calcusyn (BIOSOFT, Cambridge, UK). This program provides objective computerized evaluation procedures. For mutually non-exclusive drugs that have totally independent modes of action, Cl<1, =1, and >1 indicates synergism, additive effect, and antagonism, respectively. The data are supported by classic isobolograms made by the same program. The isobolograms can be generated at different effect levels, e.g., ED50, ED70 and ED90. When it is generated at ED50, if the combination data points for Fa=0.5 falls on the diagonal, an additive effect is indicated; if it falls on the lower left, synergism is indicated; and if it falls on the upper right, antagonism is indicated. If a single drug is not very effective, and an ED50 can not be achieved, the results Fa-Cl or Isobologram can not be provided. In this case, the results are shown as classic dose-effect relationship charts.

In assay [2] the test system is MDA-MB-468 breast cancer cells. The description is as above. In kind it is cell-based, human. Conditions: for growth suppression / growth inhibitory effect: single agent treatment, in vitro, MDA-MB-468. On the procedure:
as §1, §2

Regarding `C[C@@H](c1ccccc1)[C@@H](C(=O)Nc1ccc(I)cc1F)N1C(=O)N[C@H](c2ccc(OCCO)cc2)C1=O` [Example 48, (2S,3S)—N-(2-Fluoro-4-iodo-phenyl)-2-{(R)-4-[4-(2-hydroxy-ethoxy)-phenyl]-2,5-dioxo-imidazolidin-1-yl}-3-phenyl-butyramide], the “combination effect of the two drugs” value in assay [1] is recorded as “synergistic effects”.
On to `C[C@@H](c1ccccc1)[C@@H](C(=O)Nc1ccc(I)cc1F)N1C(=O)N[C@H](c2ccc(OC[C@H](O)CO)cc2)C1=O` [Example 56, (2S,3S)-2-{(R)-4-[4-((R)-2,3-Dihydroxy-propoxy)-phenyl]-2,5-dioxo-imidazolidin-1-yl}-N-(2-fluoro-4-iodo-phenyl)-3-phenyl-butyramide], for which the “combination index (Cl) values, Isobolograms” value in assay [2] (combination with erlotinib, ED50, ED75, ED90, all three treatment schedules, CalcuSyn) is reported as < 0.5. For the same compound, the “combination index (Cl), Fa-Cl plot” value in assay [2] (combination with erlotinib, Fa >40%, simultaneous or sequential addition, MTT on day 5, CalcuSyn) is < 1. Besides, the “combination effect of the two drugs” value was “synergism” in assay [2] (combination with erlotinib, MDA-MB-468, simultaneous or sequential) and “synergistic effects” in assay [1]. In addition, the “growth suppression / growth inhibitory effect” value in assay [2] was “significantly less growth inhibitory effect”.
For the compound `C[C@@H](c1ccccc1)[C@@H](C(=O)Nc1ccc(I)cc1Cl)N1C(=O)N[C@H](c2ccc(OC[C@H](O)CO)cc2)C1=O` [Example 114, (2S,3S)—N-(2-Chloro-4-iodo-phenyl)-2-{(R)-4-[4-((R)-2,3-dihydroxy-propoxy)-phenyl]-2,5-dioxo-imidazolidin-1-yl}-3-phenyl-butyramide], the “combination effect of the two drugs” value in assay [1] was “synergistic effects”.
By EC50 is commonly meant the concentration giving half of the maximal effect. As to `C#Cc1cccc(Nc2ncnc3cc(OCCOC)c(OCCOC)cc23)c1` [erlotinib, N-(3-ethynylphenyl)-6,7-bis(2-methoxyethoxy)-4-quinazolinamine, reference compound], in assay [2], the “growth suppression / growth inhibitory effect” value is reported as “significant growth suppression”. For the same compound, the 50% effective concentration (EC50) in assay [1] (Homo sapiens, single agent, HT-29, ED50 can not be reached) was > 30 µM. Further, in assay [1] (single agent, HT-29 (braf mutation)), the “sensitivity of the cells to single agent treatment” value is recorded as “very resistant”.
